# Values of other authors, collected in patent publication US11406602B2, “Substances for reducing occurrence of major cardiac events comprising red yeast rice extract and omega-3 polyunsaturated fatty acid or derivative thereof” (NORDIC NATURALS, INC., priority 2007, dated 2022).
# Experiments:
# patients = details: 20 mg/day for 24 weeks
# [1] = 10, 20, and 40 mg/day
# [2] = prior art description of lovastatin
smiles,measurement,setting,value
"CC[C@H](C)C(=O)O[C@H]1C[C@@H](C)C=C2C=C[C@H](C)[C@H](CC[C@@H]3C[C@@H](O)CC(=O)O3)[C@H]21 [Lovastatin, lovastatin]",fall in total cholesterol,patients,26%
same,fall in triglycerides,patients,12%
same,reduction in LDL,[1],21-32%
same,reduction in total cholesterol,[1],16-24%
same,reduction in triglycerides,[1]; higher reduction at lower dosage,10 to 6%
same,water solubility,[2],water insoluble
same,decrease in triglycerides,slight decreases,5-10%
same,increase in high density lipoproteins (HDL),slight to moderate increases,10-20%
